Assay [1] deals with Mitogen-activated protein kinase kinase kinase 9 (Homo sapiens, UniProt P80192). The assay is described as follows: Inhibition of MLK1 (unknown origin).
For assay [2], the target named is Mitogen-activated protein kinase kinase kinase 11 (Homo sapiens, UniProt Q16584). Briefly: Inhibition of MLK3 (unknown origin).

In general, pIC50 refers to −log10 of the IC50, conventionally taken in molar units.

pIC50: −log10 of the molar value.

Mitogen-activated protein kinase kinase kinase 11, sequence (Q16584 whole entry): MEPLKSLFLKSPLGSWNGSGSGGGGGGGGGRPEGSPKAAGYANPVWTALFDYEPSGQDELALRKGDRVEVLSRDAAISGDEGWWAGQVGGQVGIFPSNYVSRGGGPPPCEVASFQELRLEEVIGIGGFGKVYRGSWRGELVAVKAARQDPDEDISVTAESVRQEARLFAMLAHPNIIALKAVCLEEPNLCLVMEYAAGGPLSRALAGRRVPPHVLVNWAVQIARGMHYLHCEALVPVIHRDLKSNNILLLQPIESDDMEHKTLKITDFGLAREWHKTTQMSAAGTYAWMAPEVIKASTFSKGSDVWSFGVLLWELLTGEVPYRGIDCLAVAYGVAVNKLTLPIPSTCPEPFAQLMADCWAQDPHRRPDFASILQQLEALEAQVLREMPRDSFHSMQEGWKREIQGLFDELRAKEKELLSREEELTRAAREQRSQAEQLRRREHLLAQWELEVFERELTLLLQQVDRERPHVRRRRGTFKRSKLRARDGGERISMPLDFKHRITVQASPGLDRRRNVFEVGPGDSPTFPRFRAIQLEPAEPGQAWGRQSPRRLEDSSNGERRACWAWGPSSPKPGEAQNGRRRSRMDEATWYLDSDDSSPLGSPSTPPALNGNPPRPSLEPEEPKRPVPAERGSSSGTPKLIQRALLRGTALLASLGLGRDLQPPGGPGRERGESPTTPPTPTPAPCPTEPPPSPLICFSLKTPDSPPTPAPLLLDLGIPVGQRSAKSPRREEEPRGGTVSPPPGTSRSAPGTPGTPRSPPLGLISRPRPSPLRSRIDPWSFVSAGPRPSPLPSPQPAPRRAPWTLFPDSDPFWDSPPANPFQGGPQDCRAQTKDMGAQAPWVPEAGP
Mitogen-activated protein kinase kinase kinase 9, sequence (P80192 whole entry): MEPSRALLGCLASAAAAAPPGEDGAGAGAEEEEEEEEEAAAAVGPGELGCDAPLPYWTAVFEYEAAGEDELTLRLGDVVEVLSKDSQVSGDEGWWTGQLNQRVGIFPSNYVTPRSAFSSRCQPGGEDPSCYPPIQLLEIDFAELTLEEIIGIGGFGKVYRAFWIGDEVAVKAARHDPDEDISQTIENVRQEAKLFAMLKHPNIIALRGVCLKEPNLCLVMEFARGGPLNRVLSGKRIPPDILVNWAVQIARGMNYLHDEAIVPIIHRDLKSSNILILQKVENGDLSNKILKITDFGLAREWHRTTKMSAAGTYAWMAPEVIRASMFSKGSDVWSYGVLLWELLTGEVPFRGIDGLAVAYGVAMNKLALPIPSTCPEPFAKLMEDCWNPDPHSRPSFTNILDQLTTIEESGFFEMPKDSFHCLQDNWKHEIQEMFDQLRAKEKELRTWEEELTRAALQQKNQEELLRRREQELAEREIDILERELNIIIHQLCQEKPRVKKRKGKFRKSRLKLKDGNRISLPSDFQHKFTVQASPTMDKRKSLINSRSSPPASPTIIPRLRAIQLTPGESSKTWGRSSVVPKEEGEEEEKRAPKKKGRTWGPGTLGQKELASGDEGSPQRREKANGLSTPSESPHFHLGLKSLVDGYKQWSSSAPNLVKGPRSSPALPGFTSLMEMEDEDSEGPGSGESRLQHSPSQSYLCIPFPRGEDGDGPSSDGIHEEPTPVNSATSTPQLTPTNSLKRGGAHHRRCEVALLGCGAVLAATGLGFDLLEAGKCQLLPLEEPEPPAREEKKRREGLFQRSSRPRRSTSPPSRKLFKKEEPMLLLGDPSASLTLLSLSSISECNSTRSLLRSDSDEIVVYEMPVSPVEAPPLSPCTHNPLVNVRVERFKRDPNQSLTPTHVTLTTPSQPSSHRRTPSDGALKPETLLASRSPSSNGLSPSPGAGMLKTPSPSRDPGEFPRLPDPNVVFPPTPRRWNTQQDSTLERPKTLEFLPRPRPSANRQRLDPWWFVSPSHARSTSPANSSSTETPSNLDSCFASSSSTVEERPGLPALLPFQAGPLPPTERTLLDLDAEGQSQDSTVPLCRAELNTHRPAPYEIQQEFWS

In the case of `OCCN1CCN(Cc2ccc(-c3cnc4[nH]cc(-c5cccc(Cl)c5)c4c3)cc2)CC1`, the negative logarithm of the IC50 (pIC50) in assay [1] is 7.35; in assay [2], 7.63.

The values above are taken from ChEMBL document CHEMBL5335780, “The emerging role of mixed lineage kinase 3 (MLK3) and its potential as a target for neurodegenerative diseases therapies” (Eur J Med Chem, 2023).
